The values that follow come from patent US20250360118A1, “TREATMENT OF FIBROTIC DISORDERS WITH METABOTROPIC GLUTAMATE RECEPTOR 5 ANTAGONISTS OR/AND CANNABINOID RECEPTOR 1 ANTAGONISTS” (THE UNITED STATES OF AMERICA,AS REPRESENTED BY THE …, priority 2022, published 2025).

“Also recorded” adds a separate entry of the source.

Common to all, as to format: in vivo, mice
For assay [1], the system named is bleomycin-induced PF mouse model. As to the kind of experiment: Survival in bleomycin-induced pulmonary fibrosis mouse model. Here is the method:
(§1) The compounds were administered by oral gavage once daily as indicated. The vehicle was a 1:1:18 ratio of DMSO:Tween® 80:saline. Oral formulations were applied at 0.3 and 3 mg/mL concentrations to achieve doses of 3 and 30 mg/kg, respectively.
(§2) All animal procedures were conducted in accordance with the rules and regulations of the Institutional Animal Care and Use Committee of the National Institutes of Alcohol Abuse and Alcoholism (NIAAA), under the protocols of LPS-GK1. Thirteen-week-old male C57BL/6J mice were obtained from The Jackson Laboratory (Bar Harbor, Maine, USA). Grm5^−/− (mGluR5 KO) mice (JAX 003121) were purchased from The Jackson Laboratory. […] (CB1R KO) mice were generated as described in Zimmer et al., Proc. Natl. Acad. Sci. USA, 96:5780-5785 (1999). Cnr1^−/− and Grm5^−/− mice were on a C57BL/6J genetic background. Both Grm5^−/− and Cnr1^−/− mice colonies were maintained with heterozygous breeding. Mice were housed individually under a 12-hour light/dark cycle and fed a standard diet, ad libitum (Teklad NIH-31; Envigo, Huntingdon, UK).
A bleomycin-induced pulmonary fibrosis model by delivery of bleomycin via oropharyngeal aspiration was generated as described in Park et al., Am. J. Respir. Cell Mol. Biol., 62(2):178-190 (2020). Briefly, bleomycin was delivered to mice anesthetized with ketamine/xylazine through the oropharynx at 1 U/kg dose using a sterile 100 μL pipette during inspiration at a volume of 100 μL/50 g body weight. Sterile saline was used as vehicle and applied to the control groups. The animals were then allowed to recover from the anesthesia.
Survival curves were plotted using GraphPad Prism 9 software. Survival was analyzed by using Log-rank (Mantel-Cox) test for assessing the statistical difference between animal groups.

Assay [2] has the same test system. Put plainly: Body weight in bleomycin-induced PF mouse model. The following applies: basimglurant 3 mg/kg oral, days 8 to 28 after single bleomycin administration, vs vehicle. As for the experimental part:
as §1, §2
A bleomycin-induced pulmonary fibrosis model by delivery of bleomycin via oropharyngeal aspiration was generated as described in Park et al., Am. J. Respir. Cell Mol. Biol., 62(2):178-190 (2020). […]

The test system is the same in assay [3]. As to the kind of experiment: Lung function measurements (FlexiVent) in bleomycin-induced PF mouse model. As for the experimental part: as §1
as §2, with “Mice were housed individually under a 12-hour light/dark cycle and fed a standard diet, ad libitum (Teklad NIH-31; Envigo, Huntingdon, UK).” left out
Respiratory system mechanics measurements were performed using the FlexiVent FX system (SCIREQ Inc., Montreal, Canada), which is equipped with an FX1 module and negative pressure forced expiration (NPFE) extension for mice. […] Pressure-volume (PV) curve, airway resistance, tissue damping (G), tissue elastance (H), forced expiratory volume per 0.1 seconds (FEV 0.1), forced vital capacity (FVC), inspiratory capacity (IC), and inhaled air amount (A) parameters were measured. […]

Assay [4] has the same test system. Put plainly: Lung hydroxyproline (fibrosis marker) in bleomycin-induced PF mouse model. The note with it: fenobam 30 mg/kg daily oral for 14 days vs vehicle, bleomycin 1 U/kg. As for the experimental part:
as §1
as §2, with “UK). […]” for “UK).”
The degree of lung fibrosis was quantified biochemically by measuring the hydroxyproline content of lung extracts using liquid chromatography/tandem mass spectrometry (LC-MS/MS) as described in Park et al., Am. […]

[5] abbreviates: basimglurant 3 mg/kg oral, days 8 to 28 after single bleomycin administration, vs vehicle.

In the case of `Cc1nc(C#Cc2ccnc(Cl)c2)c(C)n1-c1ccc(OC(F)(F)F)cc1` [CTEP, 2-chloro-4-((2,5-dimethyl-1-(4-(trifluoromethoxy)phenyl)-1H-imidazol-4-yl)ethynyl)pyridine], the survival rate in assay [1] (CTEP 3 mg/kg daily oral for 28 days after single oropharyngeal bleomycin 1 U/kg, vehicle-treated mice 50%) was determined as 100%. In assay [1] (CTEP 3 mg/kg daily oral gavage vs vehicle, bleomycin 1 U/kg), the “survival (in words)” value is given as “significantly improved survival; also recorded: prevented mortality”.
Consider `Cc1nc(C#Cc2ccnc(Cl)c2)c(C)n1-c1ccc(F)cc1` [basimglurant], for which, in assay [2], the body weight loss result is “reduced body weight loss”. The “survival rate (in words)” value in assay [1] (setting [5]) was “increased survival rate”. For the same molecule, the pulmonary tissue stiffness entry in assay [3] (setting [5]) is recorded as “reduced pulmonary tissue stiffness”.
As for `CN1CC(=O)NC1=NC(=O)Nc1cccc(Cl)c1` [fenobam], the “fibrosis as measured by hydroxyproline level in lungs” value in assay [4] was “significantly attenuated fibrosis; also recorded: attenuated pulmonary fibrosis”. In addition, the “decline in pulmonary function parameter: forced expiratory volume (FEV) at 0.1 sec. (air flow)” value in assay [3] (fenobam 30 mg/kg daily oral for 14 days vs vehicle, bleomycin 1 U/kg) is reported as “significantly attenuated”.
